According to patent US20240101963A1, “SC-BETA CELLS AND COMPOSITIONS AND METHODS FOR GENERATING THE SAME” (President and Fellows of Harvard College, priority 2013, published 2024):

Tests used:
Type in all cases: cell-based, human
[1] = test system: SC-β cells; assay: Insulin secretion of plated SC-β cells treated with anti-diabetic drugs in 2 and 20 mM glucose; conditions: SC-β cells treated with drug; trend
Method: FIG. 16A is a schematic illustration of the utility of SC-β cells for treating diabetes or screening drugs to improve function or replication. FIG. 16B is a table listing diabetic drugs investigated and their general therapeutic category. FIG. 16C is a graph showing ELISA measurements of secreted human insulin from plated SC-β cells treated with the indicated drugs in 2 and 20 mM glucose. Indicated p values compare the insulin value in 20 mM glucose between the drug and the control. FIG. 16D is an immunofluorescence image of dispersed and plated SC-β cells stained with DAPI (blue), C-peptide (green), and Ki67 (red) without treatment. FIG. 16E is an immunofluorescence image of dispersed and plated SC-β cells stained with DAPI (blue), C-peptide (green), and Ki67 (red) treated with prolactin for 48 hours. […] FIG. 16G is a graph illustrating fasting blood glucose measurements of Akita mice transplanted with SC-β cells (n=6) or PH cells (n=6). *p<0.05 comparing the two cell groups on the same day. FIG. 16H is a graph illustrating blood glucose measurements from progressively diabetic Akita mice transplanted with SC-β cells or PH cells. Measurements were taken before (white bars) and 20 min after (black bars) a glucose injection of mice transplanted 2 weeks prior. Glucose measurements were saturated at 550 mg/dL. *p<0.05 comparing the two cell groups at the same time post glucose injection. FIG. 16I is a graph showing ELISA measurements of human insulin from the serum of Akita mice 20 min after a glucose injection. Mice were challenged with glucose 2 weeks post transplantation. *p<0.05 comparing the two cell groups. Scale bar=50 μm.
The inventors first tested whether SC-β cells could respond to existing anti-diabetic drugs from several different classes (FIG. 16B). LY2608204 is glucokinase activator in clinical trials while liraglutide, tolbutamide, and nateglinide are examples of GLP-1 agonists and secretagogues (sulfonylureas and meglitinides), respectively, that have been used clinically (Matschinsky, 2009; Modi, 2007; Vetere et al., 2014).

[2] = test system: hPSC; assay: Modified differentiation protocol Steps 3-6: cell survival and marker expression; conditions: for cell survival: Steps 3-5
From the text: (Watanabe, K. et al., Nature Biotechnology 25, 681-686 (2007)).
(Watanabe et al.) Examples of Rock inhibitors include, but are not limited to, Y-27632, Fasudil/HA1077, and H-1152.
In addition to treating the cells with a Rocki inhibitor, the cells in Steps 3-4 can be treated with ActivinA alone or in combination with Nicotinamide.
Staurosporine is known to be an activator of neuronal, glial, and stem cell-like neurosphere differentiation and is also thought to induce apoptosis. (Schumacher, et al., Mol. Cell. Neurosci. 2003; 23(4): 669-680).

[3] = test system: SC-β cells; assay: GSIS of SC-β cells after adding additional factors to CMRL media at last differentiation step (Stage 6); conditions: factor added to CMRL media containing Alk5 inhibitor and T3; versus CMRL only, CMRL+Alk5i+T3 or S3+Alk5i+T3
From the text: To induce the in vitro maturation of at least some of the Pdx1-positive, NKX6-1-positive, insulin-positive endocrine cells into SC-β cells, the Pdx1-positive, NKX6-1-positive, insulin-positive endocrine cells are maintained in a suitable culture medium for a sufficient period of time. […] Adding additional factors to the CMRL media at the last step of differentiation (Stage 6) (FIG. 14A), however, was also found to generate a better glucose stimulated insulin secretion (GSIS) response by SC-β cells as measured by either stimulation index between high and low glucose challenges or by the amount of insulin released. Such additional factors may include, but are not limited to, Sant1, XXI, and SSP. The stimulation index, as calculated by the ratio of insulin secreted in high glucose (15 mM) to low glucose (2.5 mM), was greater for the SC-β cells maintained in a CMRL media containing Alk5 inhibitor, T3 hormone and either Sant1, XXI or SSP than those SC-β cells maintained in only CMRL media, CMRL media containing Alk5 inhibitor and T3 hormone, or S3 media containing Alk5 inhibitor and T3 hormone (FIG. 14B). Furthermore, the amount of insulin secreted was greater for the SC-β cells maintained in a CMRL media containing Alk5 inhibitor, T3 hormone and either Sant1, XXI or SSP than those SC-β cells maintained in only CMRL media, CMRL media containing Alk5 inhibitor and T3 hormone, or S3 media containing Alk5 inhibitor and T3 hormone (FIG. 14C).
Alternatively, Days 21-35: CMRLS+10 μM Alk5i II+1 μM T3+Sant1.
Alternatively, Days 21-35: CMRLS+10 μM Alk5i II+1 μM T3+XXI.
Alternatively, Days 21-35: CMRLS+10 μM Alk5i II+1 μM T3+SSP.

[4] = test system: SC-β cells; assay: β cell replication: C-peptide/Ki67 staining of SC-β cells; conditions: SC-β cells cultured with prolactin (48 hours); untreated 0.20±0.08%
From the text: Next the inventors tested whether SC-β cells could model β cell replication. Increasing a patient's β cell mass may improve glycemic control by producing more insulin in total without needing to increase the amount of insulin produced per β cell. To date, few if any drugs that have promoted β cell replication in rodent or cell line models have been translated to human β cells. […] The inventors tested whether treatment with prolactin could increase β cell replication in a SC-β cell population. After culturing SC-β cells with prolactin, cells were stained and fixed for C-peptide and the proliferation marker Ki67 (FIGS. 16D and 16E). Like primary human β cells, the baseline number of Ki67+ proliferating SC-β cells was very low (0.20±0.08% Ki67+/C-peptide+) (FIG. 16F).
Cells were dispersed and plated onto 96 well plates. After one day of culture, cells were washed in PBS and fixed in 4% PFA for 20 min at RT. Following 3 washes with PBS, cells were blocked for 1 hour at RT in PBS+0.1% Triton X-100+5% donkey serum. […] The percentage of target cell-types was quantified using the Array Scan Cellomics high-content screening system. Here 30 images were acquired per well and quantified. Cells labeled by antibody staining and total cell number (based on DAPI nuclei staining) were quantified to obtain percentages of target cell types.

## O=C(Nc1ncc(SCCN2CCCC2)s1)[C@]1(c2ccc(S(=O)(=O)C3CC3)cc2)C[C@H]1C1CCCCC1 [LY2608204]
[1]
  insulin secretion in vitro following a glucose challenge: increasing insulin secretion

## NC(=O)c1cccnc1 [Nicotinamide]
[2]
  cell survival: improve cell survival

## Cc1nn(-c2ccccc2)c(C)c1/C=N/N1CCN(Cc2ccccc2)CC1 [Sant1]
[3]
  amount of insulin secreted: greater
  stimulation index, ratio of insulin secreted in high glucose (15 mM) to low glucose (2.5 mM): greater

## C[C@H](NC(=O)Cc1cc(F)cc(F)c1)C(=O)N[C@H]1N=C(c2ccccc2)c2ccccc2N(C)C1=O [XXI]
[2]; XXI added to medium with Alk5i and T3 at Steps 5 and 6
  NeuroD1+ population: increase
[3]
  amount of insulin secreted: greater
  stimulation index, ratio of insulin secreted in high glucose (15 mM) to low glucose (2.5 mM): greater

## CC(C)[C@H]1CC[C@H](C(=O)N[C@H](Cc2ccccc2)C(=O)O)CC1 [nateglinide]
[1]
  insulin secretion in vitro following a glucose challenge: increasing insulin secretion

## CN[C@@H]1C[C@H]2O[C@@](C)([C@@H]1OC)n1c3ccccc3c3c4c(c5c6ccccc6n2c5c31)C(=O)NC4 [staurosporine]
[2]; Steps 5-6
  percentage of ChromograninA: increasing
  percentage of NKX6-1.C-peptide+ cells: increasing
[3]
  amount of insulin secreted: greater
  stimulation index, ratio of insulin secreted in high glucose (15 mM) to low glucose (2.5 mM): greater

## CCCCNC(=O)NS(=O)(=O)c1ccc(C)cc1 [tolbutamide]
[1]
  insulin secretion in vitro following a glucose challenge: increasing insulin secretion

B1: Activin A: growth factor from the TGF-β superfamily (protein, UniProt P08476 311-426, looked up)
Inhibin beta A chain: GLECDGKVNICCKKQFFVSFKDIGWNDWIIAPSGYHANYCEGECPSHIAGTSGSSLSFHSTVINHYRMRGHSPFANLKSCCVPTKLRPMSMLYYDDGQNIIKKDIQNMIVEECGCS
modifications: Inhibin beta A chain
notes: growth factor from the TGF-β superfamily
[2]
  cell survival: improve cell survival

B2: prolactin: hormone tested for increasing β cell replication (protein, UniProt P01236 29-227, looked up)
Prolactin: LPICPGGAARCQVTLRDLFDRAVVLSHYIHNLSSEMFSEFDKRYTHGRGFITKAINSCHTSSLATPEDKEQAQQMNQKDFLSLIVSILRSWNEPLYHLVTEVRGMQEAPEAILSKAVEIEEQTKRLLEGMELIVSQVHPETKENEIYPVWSGLPSLQMADEESRLSAYYNLLHCLRRDSHKIDNYLKLLKCRIIHNNNC
[4]
  Ki67+/C-peptide+ cells after prolactin treatment: 0.39±0.08%
